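Cultured in 96-well plates, cells were exposed to test compound for 48 hours across five concentrations. GI50 marks 50% less growth.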 The source made the active and inactive calls. No stated cut-off is given here; in the data, active = GI50 up to about 1.1 µM and inactive = higher.
Experiments:
Experiment in all cases: NCI tumour cell line growth inhibition, 48 h
HT-29 = system: HT-29
IGROV-1 = system: IGROV-1
RXF 393 = system: RXF 393
Malme-3M = system: Malme-3M
SK-MEL-5 = system: SK-MEL-5
SNB-19 = system: SNB-19
COLO 205 = system: COLO 205
A498 = system: A498
TK-10 = system: TK-10
NCI-H23 = system: NCI-H23
DU-145 = system: DU-145
HOP-92 = system: HOP-92
SF-539 = system: SF-539
SN12C = system: SN12C
MDA-MB-231 = system: MDA-MB-231
A549 = system: A549
Hs-578T = system: Hs-578T
CAKI-1 = system: CAKI-1
HL-60 = system: HL-60
MDA-N = system: MDA-N

| Compound | GI50 (HT-29) | GI50 (IGROV-1) | GI50 (RXF 393) | GI50 (Malme-3M) | GI50 (SK-MEL-5) | GI50 (SNB-19) | GI50 (COLO 205) | GI50 (A498) | GI50 (TK-10) | GI50 (NCI-H23) | GI50 (DU-145) | GI50 (HOP-92) | GI50 (SF-539) | GI50 (SN12C) | GI50 (MDA-MB-231) | GI50 (A549) | GI50 (Hs-578T) | GI50 (CAKI-1) | GI50 (HL-60) | GI50 (MDA-N) |
| --- | --- | --- | --- | --- | --- | --- | --- | --- | --- | --- | --- | --- | --- | --- | --- | --- | --- | --- | --- | --- |
| CC(=O)C1=C(C)N(c2ccc(C)cc2)C2(O)C=CC(=O)C3C(=O)N(c4ccccc4)C(=O)C132 (stereo unspecified) | 18.6 µM (inactive) | 8.43 µM (inactive) | 20.3 µM (inactive) | 19.6 µM (inactive) | 15.4 µM (inactive) | 25.2 µM (inactive) | 23.3 µM (inactive) | 20.2 µM (inactive) | 18.4 µM (inactive) | 17.1 µM (inactive) | 23.4 µM (inactive) | 16.8 µM (inactive) | 24.4 µM (inactive) | 15.5 µM (inactive) | 22.5 µM (inactive) | 38.3 µM (inactive) | 29.7 µM (inactive) | 18.6 µM (inactive) | 2.47 µM (inactive) | – |
| N#C[BH2-][n+]1cn(C2CC(O)C(COP(=O)(O)OC3CC(n4cnc5c(N)ncnc54)OC3CO)O2)c2nc(N)[nH]c(=O)c21 (stereo unspecified) | > 100 µM (inactive) | > 100 µM (inactive) | > 100 µM (inactive) | > 100 µM (inactive) | > 100 µM (inactive) | > 100 µM (inactive) | > 100 µM (inactive) | > 100 µM (inactive) | – | > 100 µM (inactive) | > 100 µM (inactive) | > 100 µM (inactive) | > 100 µM (inactive) | > 100 µM (inactive) | > 100 µM (inactive) | > 100 µM (inactive) | – | > 100 µM (inactive) | > 100 µM (inactive) | > 100 µM (inactive) |
| CC(C(N)=O)N(C)C(=O)c1cc2ccccc2[n+](Cc2ccccc2)c1 (stereo unspecified) | > 100 µM (inactive) | > 100 µM (inactive) | > 100 µM (inactive) | > 100 µM (inactive) | > 100 µM (inactive) | > 100 µM (inactive) | > 100 µM (inactive) | > 100 µM (inactive) | > 100 µM (inactive) | > 100 µM (inactive) | > 100 µM (inactive) | > 100 µM (inactive) | > 100 µM (inactive) | > 100 µM (inactive) | > 100 µM (inactive) | > 100 µM (inactive) | – | > 100 µM (inactive) | > 100 µM (inactive) | > 100 µM (inactive) |
| COc1cc(NS(C)(=O)=O)ccc1Nc1c2ccccc2nc2ccccc12 [AMSACRINE] | 1.77 µM (inactive) | 2.4 µM (inactive) | 1.55 µM (inactive) | 0.611 µM (active) | 0.319 µM (active) | 0.296 µM (active) | 2.86 µM (inactive) | – | 2.63 µM (inactive) | 0.152 µM (active) | – | 0.524 µM (active) | 0.207 µM (active) | 0.131 µM (active) | 2.41 µM (inactive) | 0.049 µM (active) | 1.79 µM (inactive) | 0.0973 µM (active) | 0.0519 µM (active) | 3.32 µM (inactive) |
| Cc1nc2c(=O)n(C)c(=O)n(C)c2o1 | > 100 µM (inactive) | > 100 µM (inactive) | > 100 µM (inactive) | > 100 µM (inactive) | > 100 µM (inactive) | > 100 µM (inactive) | > 100 µM (inactive) | > 100 µM (inactive) | > 100 µM (inactive) | > 100 µM (inactive) | – | > 100 µM (inactive) | > 100 µM (inactive) | > 100 µM (inactive) | > 100 µM (inactive) | > 100 µM (inactive) | > 100 µM (inactive) | > 100 µM (inactive) | – | > 100 µM (inactive) |
| CC(OC(C)(C)C)[C@H](NC(=O)OC(C)(C)C)C(=O)O (stereo partly specified) | > 100 µM (inactive) | > 100 µM (inactive) | > 10 µM (inactive) | > 100 µM (inactive) | > 100 µM (inactive) | > 100 µM (inactive) | > 100 µM (inactive) | > 100 µM (inactive) | > 100 µM (inactive) | > 100 µM (inactive) | > 100 µM (inactive) | > 100 µM (inactive) | > 100 µM (inactive) | > 100 µM (inactive) | > 100 µM (inactive) | > 100 µM (inactive) | > 100 µM (inactive) | > 100 µM (inactive) | > 100 µM (inactive) | – |
| CC(=O)NS(=O)(=O)c1ccc(NC(=O)c2c3ccccc3nc3ccccc23)cc1 | > 100 µM (inactive) | > 100 µM (inactive) | – | 34.4 µM (inactive) | > 100 µM (inactive) | > 100 µM (inactive) | > 100 µM (inactive) | > 100 µM (inactive) | > 100 µM (inactive) | > 100 µM (inactive) | > 100 µM (inactive) | > 100 µM (inactive) | > 100 µM (inactive) | > 100 µM (inactive) | > 100 µM (inactive) | > 100 µM (inactive) | – | > 100 µM (inactive) | 1.48 µM (inactive) | > 100 µM (inactive) |
| CC1(C)OC(CCC#N)CN1C(=O)OCc1ccccc1 (stereo unspecified) | – | > 100 µM (inactive) | > 100 µM (inactive) | 49 µM (inactive) | 68.4 µM (inactive) | 9.57 µM (inactive) | > 100 µM (inactive) | > 100 µM (inactive) | > 100 µM (inactive) | > 100 µM (inactive) | > 100 µM (inactive) | > 100 µM (inactive) | > 100 µM (inactive) | > 10 µM (inactive) | > 100 µM (inactive) | > 100 µM (inactive) | – | > 100 µM (inactive) | > 100 µM (inactive) | > 100 µM (inactive) |
| O=C(/C=C/c1ccc(Cl)cc1)c1ccccc(=O)c1O | 2.58 µM (inactive) | 1.82 µM (inactive) | 2.81 µM (inactive) | 1.33 µM (inactive) | 0.621 µM (active) | 2.72 µM (inactive) | 1.23 µM (inactive) | 2.84 µM (inactive) | 4.55 µM (inactive) | 2.71 µM (inactive) | 2.61 µM (inactive) | 3.54 µM (inactive) | 2.32 µM (inactive) | 0.643 µM (active) | 1.44 µM (inactive) | 1.41 µM (inactive) | 4.99 µM (inactive) | 0.614 µM (active) | 0.516 µM (active) | – |
| COc1cc2c(/C=C3/C(=O)Nc4cc(C)c(O)cc43)c(Cl)[nH]c2cc1C | 2.33 µM (inactive) | 4.06 µM (inactive) | 1.66 µM (inactive) | 0.407 µM (active) | 2.31 µM (inactive) | 2.82 µM (inactive) | 2.03 µM (inactive) | 13.9 µM (inactive) | 1.9 µM (inactive) | 1.26 µM (inactive) | 2.75 µM (inactive) | 23 µM (inactive) | 2.2 µM (inactive) | 2.4 µM (inactive) | 2.59 µM (inactive) | 4.01 µM (inactive) | 2.13 µM (inactive) | 2.55 µM (inactive) | 1.86 µM (inactive) | – |
| Cc1nc2cn3c(c2c(=O)[nH]1)CCCCC3 | > 100 µM (inactive) | > 100 µM (inactive) | > 100 µM (inactive) | – | > 100 µM (inactive) | > 100 µM (inactive) | > 100 µM (inactive) | > 100 µM (inactive) | > 100 µM (inactive) | > 100 µM (inactive) | > 100 µM (inactive) | > 100 µM (inactive) | > 100 µM (inactive) | – | 28.2 µM (inactive) | – | > 100 µM (inactive) | > 100 µM (inactive) | > 100 µM (inactive) | – |
| OC[C@H]1O[C@@H]2O[C@@](COCc3ccccc3)([C@H](OCc3ccccc3)[C@H]2O)[C@@H]1OCc1ccccc1 | 4.81 µM (inactive) | 13.9 µM (inactive) | – | – | 15.3 µM (inactive) | 17.6 µM (inactive) | 17.4 µM (inactive) | 18.1 µM (inactive) | 18.6 µM (inactive) | 16.6 µM (inactive) | 16.5 µM (inactive) | 11.9 µM (inactive) | 17.5 µM (inactive) | 15.7 µM (inactive) | 15.3 µM (inactive) | 14.7 µM (inactive) | 7.4 µM (inactive) | 15.7 µM (inactive) | 18.2 µM (inactive) | – |
| CCOC(=O)C1=C(C)N(C)C23OC4(C(=O)OC)CC2c2ccccc2C1N3C4=O (stereo unspecified) | 51.9 µM (inactive) | > 100 µM (inactive) | – | > 100 µM (inactive) | 32.5 µM (inactive) | > 100 µM (inactive) | > 100 µM (inactive) | > 100 µM (inactive) | > 100 µM (inactive) | > 100 µM (inactive) | > 100 µM (inactive) | > 100 µM (inactive) | 22.3 µM (inactive) | 79.3 µM (inactive) | > 100 µM (inactive) | > 100 µM (inactive) | – | > 100 µM (inactive) | 24.6 µM (inactive) | 14.2 µM (inactive) |
| CN(C)/C(F)=P\C(F)(F)F (stereo unspecified) | > 100 µM (inactive) | > 100 µM (inactive) | > 100 µM (inactive) | > 100 µM (inactive) | > 100 µM (inactive) | > 100 µM (inactive) | > 100 µM (inactive) | > 100 µM (inactive) | > 100 µM (inactive) | > 100 µM (inactive) | – | > 100 µM (inactive) | > 100 µM (inactive) | > 100 µM (inactive) | – | > 100 µM (inactive) | – | > 100 µM (inactive) | > 100 µM (inactive) | – |
| CN(Cc1cnc2nc(N)nc(N)c2n1)c1ccc(C(=O)N[C@@H](CCC(=O)O)C(=O)O)cc1 [METHOTREXATE] | 0.0335 µM (active) | 0.0908 µM (active) | 20.7 µM (inactive) | 2.36 µM (inactive) | 0.09 µM (active) | 0.59 µM (active) | 1.19 µM (inactive) | 4.78 µM (inactive) | 37.4 µM (inactive) | 0.0408 µM (active) | 0.0476 µM (active) | 7.21 µM (inactive) | 0.0375 µM (active) | 0.0321 µM (active) | 38.7 µM (inactive) | 0.0345 µM (active) | 192 µM (inactive) | 0.0614 µM (active) | 0.043 µM (active) | – |
